Counter-ions that a name gives are not always drawn.

The test system of one experiment is CuFi-1 cells. Nature of the experiment: Secretory activity for chloride ions (MQAE fluorescence) in CuFi-1 cells. In kind it is cell-based. The settings on record: CuFi-1 cells, zinc final concentration 10 μM, hydrochloride. Here is the method: Measurement of the secretory activity for chloride ions was performed in accordance with a previous report (West and Molloy, 1996). CuFi-1 cells were plated on a 96 well plate in 3×10^4 cells/well and incubated for two nights. After removing the culture medium, 100 μL/well of N-(ethoxycarbonylmethyl)-6-methoxyquinolinium bromide (MQAE) (diluted with culture medium and the concentration adjusted to 5 mM) was added. After the addition of MQAE, the cells were incubated for one night so that the indicator was passively loaded. After the loading, the cells were washed two times with Assay buffer, and 100 μL/well of Assay buffer was added. The secretory capacity for chloride ions was measured using FlexStation 1 (fluorescence wavelength of Ex: 355 nm/Em: 460 nm). In order to measure the basic value, nothing was added for 34 seconds immediately after the start of the measurement. Then, at this point, 100 μL/well of the test compound and zinc (final concentration: 10 μM) diluted with Assay buffer, which is free of chloride ions, was added, and the measurement was continued for 86 seconds (total measurement time: 120 seconds). The secretory capacity for chloride ions was calculated by dividing the average of RFU values in 10 seconds between 110 seconds and 120 seconds after the start of the measurement with the average between 0 second and 34 seconds (the basic value). The secretory activity for chloride ions of the test compound (EC50 value) was calculated by obtaining the secretory capacity for chloride ions at each concentration of the serially diluted test compound, and determining a concentration of the test compound that provides a secretory capacity of 50% from two secretory capacities and concentrations sandwiching 50% of the maximum response of each compound.
As for `CCNc1nc(C(=O)O)nc(C)c1Sc1ccccc1Cl` [Example 22, 5-((2-Chlorophenyl)thio)-4-(ethylamino)-6-methylpyrimidine-2-carboxylic acid hydrochloride], the 50% effective concentration (EC50) (in general, the concentration at which the effect is half-maximal) was found to be 7.1 nM.

Staying with this experiment, now noted: Homo sapiens, CuFi-1, CuFi-1 cells, zinc final concentration 10 μM.
For `CCNc1nc(C(=O)O)nc(C)c1Cc1ccc(Cl)cc1Cl` [Example 1, 5-(2,4-Dichlorobenzyl)-4-(ethylamino)-6-methylpyrimidine-2-carboxylic acid hydrochloride], the 50% effective concentration (EC50) stood at 9.4 nM.
Take `CCCNc1nc(C(=O)O)nc(C)c1Cc1ccc(Cl)cc1Cl` [Example 2, 5-(2,4-Dichlorobenzyl)-4-methyl-6-(n-propylamino)pyrimidine-2-carboxylic acid hydrochloride]: the EC50 came out at 24.2 nM. Compared with the last compound, the EC50 is about 2.6-fold higher.
Same read-out and setting: as for `CCN(CC)c1nc(C(=O)O)nc(C)c1Cc1ccc(Cl)cc1Cl` [Example 3, 5-(2,4-Dichlorobenzyl)-4-(diethylamino)-6-methylpyrimidine-2-carboxylic acid hydrochloride], the figure is 53 nM; as for `Cc1nc(C(=O)O)nc(N[C@@H](C)C(N)=O)c1Cc1ccc(Cl)cc1Cl` [Example 4, (S)-4-((1-Amino-1-oxopropan-2-yl)amino)-5-(2,4-dichlorobenzyl)-6-methylpyrimidine-2-carboxylic acid hydrochloride], 19.6 nM.
Same read-out and setting: as for `Cc1nc(C(=O)O)nc(NCCCOC(C)C)c1Cc1ccc(Cl)cc1Cl` [Example 5, 5-(2,4-Dichlorobenzyl)-4-((3-isopropoxypropyl)amino)-6-methylpyrimidine-2-carboxylic acid], the figure is 30.3 nM; as for `Cc1nc(C(=O)O)nc(NCC(C)(C)O)c1Cc1ccc(Cl)cc1Cl` [Example 6, 5-(2,4-Dichlorobenzyl)-4-((2-hydroxy-2-methylpropyl)amino)-6-methylpyrimidine-2-carboxylic acid], 50.3 nM.
For `Cc1nc(C(=O)O)nc(N)c1Cc1ccc(Cl)cc1Cl` [Example 7, 4-Amino-5-(2,4-dichlorobenzyl)-6-methylpyrimidine-2-carboxylic acid trifluoroacetate], the EC50 came to 41.7 nM.
The same measure, in the same setting: as for `Cc1nc(C(=O)O)nc(NCC(=O)O)c1Cc1ccc(Cl)cc1Cl` [Example 8, 4-((Carboxymethyl)amino)-5-(2,4-dichlorobenzyl)-6-methylpyrimidine-2-carboxylic acid hydrochloride], the figure is 50.6 nM; as for `CCNc1nc(C(=O)O)nc(C(C)C)c1Cc1ccc(Cl)cc1Cl` [Example 9, 5-(2,4-Dichlorobenzyl)-4-(ethylamino)-6-isopropylpyrimidine-2-carboxylic acid], 5.5 nM.
The same measure, in the same setting: with `CCNc1nc(C(=O)O)nc(C2CC2)c1Cc1ccc(Cl)cc1Cl` [Example 10, 4-Cyclopropyl-5-(2,4-dichlorobenzyl)-6-(ethylamino)pyrimidine-2-carboxylic acid] the figure was 7.3 nM; with `CCc1nc(C(=O)O)nc(NC)c1Cc1ccccc1Cl` [Example 11, 5-(2-Chlorobenzyl)-4-ethyl-6-(methylamino)pyrimidine-2-carboxylic acid], 11.1 nM.
Still for that read-out and setting: as for `CCNc1nc(C(=O)O)nc(CC)c1Cc1ccccc1Cl` [Example 12, 5-(2-Chlorobenzyl)-4-ethyl-6-(ethylamino)pyrimidine-2-carboxylic acid], the figure is 6.7 nM; as for `CNc1nc(C(=O)O)nc(C(C)C)c1Cc1ccccc1Cl` [Example 13, 5-(2-Chlorobenzyl)-4-isopropyl-6-(methylamino)pyrimidine-2-carboxylic acid], 5.6 nM.
As to `CCNc1nc(C(=O)O)nc(C(C)C)c1Cc1ccccc1Cl` [Example 14, 5-(2-Chlorobenzyl)-4-(ethylamino)-6-isopropylpyrimidine-2-carboxylic acid], the response was half-maximal at 5 nM (EC50). This EC50 and that of the compound before are within 1.5-fold of each other.
Still for that read-out and setting: as for `CCNc1nc(C(=O)O)nc(CC)c1Cc1ccc(Cl)cc1Cl` [Example 15, 5-(2,4-Dichlorobenzyl)-4-ethyl-6-(ethylamino)pyrimidine-2-carboxylic acid], the figure is 10.8 nM.
Compound `CCNc1nc(C(=O)O)nc(COC)c1Cc1ccc(Cl)cc1Cl` [Example 16, 5-(2,4-Dichlorobenzyl)-4-(ethylamino)-6-(methoxymethyl)pyrimidine-2-carboxylic acid] showed an EC50 of 52.7 nM.
On to `CNc1nc(C(=O)O)nc(C)c1Oc1ccc(Cl)cc1Cl` [Example 17, 5-(2,4-Dichlorophenoxy)-4-methyl-6-(methylamino)pyrimidine-2-carboxylic acid], for which the EC50 was found to be 15.7 nM.
With `CCNc1nc(C(=O)O)nc(C)c1Sc1ccccc1Cl` [Example 18, 5-((2-Chlorophenyl)thio)-4-(ethylamino)-6-methylpyrimidine-2-carboxylic acid], the EC50 came to 4.6 nM.
The same measure, in the same setting: as for `CCNc1nc(C(=O)O)nc(C(C)C)c1Sc1ccccc1Cl` [Example 19], the figure is 13.1 nM.
Same read-out and setting: as for `CCNc1nc(C(=O)O)nc(CC)c1Sc1ccccc1Cl` [Example 20], the figure is 5.9 nM; as for `CCNc1nc(C(=O)O)nc(CC)c1Sc1ccc(Cl)cc1Cl` [Example 21], 18.6 nM.
The same measure, in the same setting: as for `CNc1nc(C(=O)O)nc(C)c1Sc1ccccc1` [Example 23], the figure is 86 nM; as for `CCNc1nc(C(=O)O)nc(C)c1Sc1ccccc1C(F)(F)F` [Example 24], 12.9 nM; as for `CCNc1nc(C(=O)O)nc(C)c1Sc1ccccc1F` [Example 25], 14.6 nM.
For `CNc1nc(C(=O)O)nc(C)c1Sc1ccccc1C(C)C` [Example 26], the concentration for a half-maximal effect (EC50) stood at 14.4 nM.
Compound `CNc1nc(C(=O)O)nc(C)c1Sc1ccccc1C` [Example 27] had a concentration giving a half-maximal response (EC50) of 14 nM.
Regarding `CNc1nc(C(=O)O)nc(C)c1Sc1cccc(Cl)c1Cl` [Example 28], the EC50 came to 2.8 nM.
As to `CNc1nc(C(=O)O)nc(C)c1Sc1ccc(F)cc1Cl` [Example 29], the EC50 worked out at 6.9 nM.
`Cc1nc(C(=O)O)nc(NC(C)C)c1Sc1ccccc1Cl` [Example 30] gave an EC50 of 9.5 nM.
Same read-out and setting: as for `CCNc1nc(C(=O)O)nc(C)c1Oc1ccc(Cl)cc1Cl` [Example 31], the figure is 34.9 nM; as for `COc1nc(C(=O)O)nc(C)c1Cc1ccc(Cl)cc1Cl` [Example 32, 5-(2,4-Dichlorobenzyl)-4-methoxy-6-methylpyrimidine-2-carboxylic acid], 17.1 nM.
With `CCOc1nc(C(=O)O)nc(C)c1Cc1ccc(Cl)cc1Cl` [Example 33], a half-maximal effect (EC50) was put at 18.4 nM. The EC50 values of the last two compounds are within 1.5-fold of each other.
As for `COc1nc(C(=O)O)nc(C)c1Oc1ccc(Cl)cc1Cl` [Example 34], the midpoint of the response, the EC50, lay at 80.1 nM. Compared with the last compound, the EC50 is about 4.4-fold higher.
Take `CCOc1nc(C(=O)O)nc(C)c1Oc1ccc(Cl)cc1Cl` [Example 35]: the EC50 worked out at 29.3 nM. Against the preceding compound, the EC50 is about 2.7-fold lower.
Same read-out and setting: as for `COc1nc(C(=O)O)nc(C)c1Sc1ccc(Cl)cc1Cl` [Example 36], the figure is 80.6 nM; as for `CCc1nc(C(=O)O)nc(OC)c1Sc1ccc(Cl)cc1Cl` [Example 37], 30.3 nM; as for `CCc1nc(C(=O)O)nc(OC)c1Cc1ccccc1Cl` [Example 39], 5.5 nM.
Turning to `CCc1nc(C(=O)O)nc(OC)c1Cc1ccc(F)cc1Cl` [Example 40], the EC50 was 8.1 nM.
`CCc1nc(C(=O)O)nc(OC)c1Cc1cccc(Cl)c1Cl` [Example 41]: a half-maximal effect (EC50) was put at 16.3 nM. Against the preceding compound, the EC50 is about 2-fold higher.
The same measure, in the same setting: with `CCc1nc(C(=O)O)nc(OC)c1Cc1ccc(Cl)cc1F` [Example 42] the figure was 7.6 nM.
Still for that read-out and setting: as for `CCc1nc(C(=O)O)nc(OC)c1Cc1ccccc1F` [Example 43], the figure is 66.7 nM.
The same measure, in the same setting: with `CCc1nc(C(=O)O)nc(OC)c1Cc1cccc(F)c1Cl` [Example 44] the figure was 9.4 nM; with `CCCc1nc(C(=O)O)nc(OC)c1Cc1ccccc1Cl` [Example 45, hydrochloride], 14.7 nM.
For `CCCc1nc(C(=O)O)nc(OC)c1Cc1ccc(F)cc1Cl` [Example 46], it took 15.9 nM to reach a half-maximal effect (EC50).
Consider `CCCc1nc(C(=O)O)nc(OC)c1Cc1ccc(Cl)cc1F` [Example 47], for which the midpoint of the response, the EC50, lay at 8.6 nM. Against the preceding compound, the EC50 is about 1.8-fold lower.
The compound `CCOc1nc(C(=O)O)nc(CC)c1Cc1cccc(Cl)c1Cl` [Example 48, 5-(2,3-Dichlorobenzyl)-4-ethoxy-6-ethylpyrimidine-2-carboxylic acid] showed an EC50 of 9.4 nM.
In turn, `CCOc1nc(C(=O)O)nc(C)c1Cc1ccc(F)cc1Cl` [Example 49] had an EC50 of 24.8 nM. This EC50 lies about 2.6-fold higher than the previous one.
On to `CCOc1nc(C(=O)O)nc(C)c1Cc1cccc(Cl)c1Cl` [Example 50], for which the EC50 worked out at 10.2 nM.
On the same count and under the same terms, as for `CCOc1nc(C(=O)O)nc(CC)c1Cc1ccc(Cl)cc1F` [Example 51], the figure is 8.2 nM; as for `CCOc1nc(C(=O)O)nc(C)c1Cc1ccccc1Cl` [Example 52, 5-(2-Chlorobenzyl)-4-ethoxy-6-methylpyrimidine-2-carboxylic acid hydrochloride], 15.8 nM.
Consider `CCCOc1nc(C(=O)O)nc(C)c1Cc1ccccc1Cl` [Example 53], for which the EC50 is 15.8 nM.
`CCOc1nc(C(=O)O)nc(C)c1Cc1ccc(Cl)cc1F` [Example 56] yielded an EC50 of 16 nM.
On the same count and under the same terms, with `CCOc1nc(C(=O)O)nc(C)c1Cc1ccc(OC)cc1Cl` [Example 57] the figure was 20.8 nM; with `CCCc1nc(C(=O)O)nc(OCC)c1Cc1ccc(Cl)cc1F` [Example 58], 13 nM.
`CCOc1nc(C(=O)O)nc(CC)c1Cc1cccc(Cl)c1F` [Example 60] returned an EC50 of 12 nM.
Turning to `CCOc1nc(C(=O)O)nc(CC)c1Cc1cccc(F)c1Cl` [Example 61], the EC50 was 11.4 nM.
